# Results published in patent publication US9579344B2, “Use of nitrite salts in treating tissue damage” (Board of Supervisors of Louisiana State University and …, priority 2009, dated 2017).
# Where two headings read alike, the source gives them in different places.
# Tests used:
# [1] = test system: ischemic tissue gene expression
# Experimental: (§1) Hind limb ischemia was induced by ligating the left common femoral artery proximal to origin of profunda femoris artery according to Senthilkumar, A., Smith, R. D., Khitha, J., Arora, N., Veerareddy, S., Langston, W., Chidlow, 1H., Jr., Barlow, S. c., Teng, x., Patel, R. P., et al. 2007. Arterioscler Thromb Vasc Biol 27: 1947-1954. Mice were anesthetized with intraperitoneal injection of ketamine (100 mglkg) and xylazine (8 mglkg); surgery was performed under aseptic conditions. The common femoral vein and femoral nerve were dissected away from the artery. Two ligatures were placed in the common femoral artery proximal to the profunda femoris artery and then transected between the two ligations. The incision was then closed and the ligation was immediately verified by laser Doppler measurement of tissue blood flow.
# RNA integrity was checked using the Agilent 2100 Bioanalyzer (Agilent Technologies, Palo Alto, Calif.). […] Double stranded cDNA was synthesized from 5 ug total RNA using a Superscript cDNA synthesis Kit (Invitrogen, Carlsbad, Calif.) and purified using the Gene Chip Sample Cleanup Module (Affymetrix, Santa Vlara, Calif.). After biotin-labeling, the cDNA were fragmented at 94° C. and hybridized to the GeneChip® Mouse Genome 430 2.0 Array (Affymetrix), which contains 39,000 fully annotated transcripts of the mouse genome. After washing and staining, the arrays were scanned using GeneChip Scanner 3000 (Affymetrix) and hybridization efficiency determined by housekeeping control and spike control probe sets.
# Array data were globally scaled to a target intensity value of 500 to compare individual array experiments. To determine differentially expressed genes between PBS and nitrite treatment, data were log transformed and uploaded into Genesifter program (www.genesifter.net). Identification of significant changes in gene expression were determined using a pair-wise comparison of PBS versus nitrite therapy gene array data at each individual time point with the following criteria: a minimal 2-fold difference in expression with no maximal threshold limit, a hybridization quality cutoff of 1, and an unpaired student t-test between treatment groups followed by Benjamini and Hochberg post test to limit false discovery rates.
# The resulting output of network analysis was broken down according to the genetic composition of networks, the biological function of the networks, the number of interrelated network relationships, as well as statistical analysis of individual networks.
# Induction of chronic hind limb ischemia was performed according to the method in Example 1. […] Nitrite doses were given once in the morning (8 am) and a second in the afternoon (5 pm) with muscle tissue harvested on the morning of the 4th and 8th days (to give an entire 3 and 7 day period for study). Four muscle specimens from individual mice were harvested per treatment cohort per time point for a total of 16 individual specimens for gene array analysis. Harvested tissue was immediately frozen in liquid nitrogen for subsequent total RNA isolation. Laser doppler blood flow measurements were taken from non-ischemic and ischemic hind limbs prior to tissue collection to determine the amount of ischemic tissue perfusion using a Vasamedics Laserflo BPM2 deep tissue penetrating doppler device. Percent restoration of blood flow was determined by dividing the ischemic hind limb blood flow by the non-ischemic hind limb blood flow and multiplying by 100. Statistical analysis of changes in tissue blood flow between treatment groups at specific time points were performed with an unpaired students t-test using Prism software (Graphpad).
# [2] = test system: coronary artery endothelial cells, umbilical vein endothelial cells
# Experimental: (§2) A contained hypoxia tissue culture system was used allowing the long term culturing of cells in hypoxia (24 hrs). A fluorescent plate reader in hypoxic chamber measured NO formation using the fluorescent dye DAF-FM.
# (§3) The effect of specific inhibitors of NO production, carboxy PTIO (2-(4-Carboxyphenyl)-4,4,5,5-tetramethylimidazoline-1-oxyl-3-oxide), allopurinol and L-NAME, was also analyzed. […] Results for iliac vein smooth muscle cells are shown in FIGS. 7A, 7B and 8; results for aortic smooth muscle cells are shown in FIGS. 9A, 9B and 10; results for coronary artery cells are shown in FIGS. 11A, 11B and 12, results for umbillical vein cells are shown in FIGS. 13A, 13B and 14.
# [3] = test system: iliac vein smooth muscle cells, aortic smooth muscle cells
# Experimental: as §2, §3
# cultured cells = conditions: hypoxic and normoxic conditions, 100 nM or 1 uM sodium nitrite (FIG. 16)
# Experimental: FIG. 16 depicts the chemiluminescent detection of nitrite/nitric oxide during hypoxia.
# as §3
# [4] = test system: ischemic hind limb of B6.BKS-Lepr^db/db diabetic mice; conditions: aged diabetic mice, 165 ug/kg
# From the text: (§4) B6.BKS-Lepr^db/db diabetic mice were purchased from Jackson's laboratory and housed in the animal center of LSU Health Sciences Center for 6 months. Surgical hind limb ischemia was created in 9 month-old male (Db/Db) type-2 diabetic mice. The mice were anesthetized by isoflurane inhalation and the left groin area was shaved and naired. The left external iliac artery and vein, left femoral artery and vein, left saphenous artery and vein and deep femoral and circumflex arteries and veins were ligated, cut, and excised to obtain a mouse model of critical hind limb ischemia. […] All treatments were performed in a double-blinded manner.
# Laser Doppler blood flows were measured using a Vasamedics Laserflo BPM2 device in the gastrocnemius pre-ligation, post-ligation and on days 1, 3, 5, 7, 9, 11, 13, 15, 17, 19 and 21 post-ligation. Blood vessels visible through the skin were avoided to ensure readings indicative of muscle blood flow. Measurements were recorded as milliliter of blood flow per 100 grams of tissue per minute. Percent blood flows were calculated as: a/b××100 where a=ischemic limb average flow and b=non-ischemic limb average flow.
# [5] = aged diabetic mice
# From the text: as §4
# Blood glucose measurements were taken using Ascensia Elite blood glucose test strips and a Bayer Glucometer Elite.
# Plasma total cholesterol and LDL levels were determined using a Siemens Vista Clinical Chemistry analyzer.
# [6] = test system: gastrocnemius muscles of aged diabetic mice; conditions: non-ischemic tissues of aged diabetic mice (FIG. 21B)
# From the text: as §4
# The gastrocnemius muscles from ischemic and non-ischemic hind limbs were removed, dissected, and embedded in OCT freezing medium. Frozen tissue blocks were cut into 5 μm sections and slides prepared. A primary antibody against PECAM-1 was added at a 1:200 dilution along with anti-Ki67 (1:350 dilutions) and incubated at 37° C. for 1 hour. Slides were then washed and a Cy3 conjugated secondary antibody was added at a 1:250 dilution along with anti-rabbit Ig antibody at a 1:150 dilution and incubated at room temperature for 1 hour. Slides were once again washed and mounted with cover slips using Vectashield DAPI. […] Cellular proliferation was determined as the ratio between regions positive for Ki67 and DAPI positive area.
# [7] = test system: ischemic hindlimbs of aged diabetic mice; conditions: PBS controls showed extensive necrosis and digit loss
# From the text: as §4
# [8] = test system: ischemic hindlimbs of C57Bl/6J mice; conditions: fluorescence angiograms, 4 seconds blush time, vs PBS
# Experimental: as §1
# C2C12 myoblasts = test system: C2C12 myoblasts
# From the text: as §2
# C2C12 myoblast cells = conditions: hypoxic conditions
# [9] = cardiovascular development and function, skeletal muscle development, tissue development
# [10] = cellular assembly and organization, carbohydrate metabolism, molecular transport
# [11] = day 3, 165 μg/kg twice daily i.p., vs PBS
# [12] = day 3, Ingenuity network analysis
# [13] = day 7, 165 μg/kg twice daily i.p., vs PBS
# [14] = inflammatory response, neurological disease, cellular development
compound,measurement,setting,value
O=NO [sodium nitrite],"genes enhanced, FIG. 2 network","[1]; antigen presentation, cell mediated immunity, humoral mediated immunity","calsequestrin 2, GST alpha 5, and solute carrier family member 25"
same,"genes inhibited, FIG. 6 network","[1]; cancer, nervous system development and function, tissue morphology","glycerol-3-phosphate dehydrogenase and protein phosphatase 2, reg subunit B"
same,"genes enhanced, FIG. 3 network",[1]; [9],"CXCR6, VE-cadherin, DIX domain containing 1, myosin, heavy chain 2, myosin, light chain 2, myosin, light chain 4, myosin, light chain 9, P2rY2, paired like homeodomain 2, troponin C, type 1, troponin T, type 2 and vitronectin"
same,"genes inhibited, FIG. 3 network",[1]; [9],"Rho Gtpase activating protein 17, CCR5, CXCL12, CXCL7, formin binding protein 1, G protein coupled receptor 65, 5-HT receptor 2B, serine/threonine kinase 17b and thrombospondin 2"
same,"genes enhanced, FIG. 1 network","[1]; cardiovascular system development and function, tissue morphology, carbohydrate metabolism","flavin containing monoxygenase 5, smoothelin like 1, mysoin heavy chain 7, CUB zona pellucida like domains 1 and small proline rich protein 1A"
same,"genes enhanced, FIG. 4 network",[1]; [10],"cyclin M4, EH domain containing 2, myosin heavy chain 7, myosin light chain 9 regulatory, popeye domain containing 2 and TEA domain family member 4"
same,"genes inhibited, FIG. 4 network",[1]; [10],"adipose differentiated-related protein, chitinase 3-like 3, kinesin family member 20B, leukocyte specific transcript 1, RNA binding motif protein 47 and sorting nexin 6"
same,genes down-regulated,[1]; [11],346 genes
same,genes up-regulated,[1]; [11],111 genes
same,expression of genes associated with innate and acquired immune responses (FIG. 1),[1]; [12],inhibited
same,"expression of genes involved in antigen presentation, cell mediated immunity, and humoral mediated immunity (FIG. 2)",[1]; [12],altered
same,"expression of genes involved in cardiovascular development and function, skeletal muscle development, and tissue development (FIG. 3)",[1]; [12],altered
same,"expression of genes involved in cardiovascular system development and function, tissue morphology, and carbohydrate metabolism (FIG. 1)",[1]; [12],enhanced
same,"expression of genes involved in cellular assembly and organization, carbohydrate metabolism and molecular transport (FIG. 4)",[1]; [12],altered
same,"expression of genes involved in inflammatory response, neurological disease and cellular development (FIG. 5)",[1]; [12],altered
same,distinct gene expression profiles significantly altered,"[1]; day 3 of ischemia, 165 μg/kg twice daily i.p., vs PBS, minimal 2-fold difference",457
same,expression of genes associated with tissue remodeling,[1]; day 7,enhanced
same,genes down-regulated,[1]; [13],55 genes
same,genes up-regulated,[1]; [13],219 genes
same,"expression of genes involved in cancer, nervous system development and function and tissue morphology (FIG. 6)","[1]; day 7, Ingenuity network analysis",altered
same,genes with differentially impacted expression profile,"[1]; day 7 of ischemia, 165 μg/kg twice daily i.p., vs PBS",274 genes
same,"genes enhanced, FIG. 5 network",[1]; [14],"glycogen syntase 1 (muscle), kin of IRRE like 3, solute carrier family 16, member 3, solute carrier family 8, member 3 and uridine-cytidine kinase 2"
same,"genes inhibited, FIG. 5 network",[1]; [14],"C-type lectin domain family 5, A, FERM domain containing 4B, receptor (G protein coupled) activity modifying protein 2, signal-regulatory protein beta 1, solute carrier family 15, member 3 and zinc finger E-box binding homeobox 2"
same,myogenin mRNA levels,"[1]; ischemic mouse hindlimb gastrocnemius muscle, nitrite-treated animals (FIG. 25A)",significantly increased
same,"nitrite reduction to NO, concentration dependence",[2],reduced nitrite to NO at lower concentrations of exogenous nitrite
same,nitrite reduction to NO,[2]; hypoxic conditions (1% oxygen),reduced nitrite to NO
same,DAF fluorescence (NO formation),[3]; higher concentrations of exogenous nitrite required,large increases in DAF fluorescence
same,nitrite reduction to NO,[3]; hypoxic conditions (1% oxygen),reduced nitrite to NO
same,intracellular NO levels,cultured cells,"lower concentrations, but not higher concentrations, of sodium nitrite resulted in a significant increase"
same,blood flow in ischemic hind limbs compared with PBS-treated control animals,[4]; all time points analyzed,significantly greater
same,blood flow in ischemic hind limbs relative to preligation,[4]; by the end of the study,approached preligation levels
same,ischemic hind-limb blood flow,[4]; treatment delayed to five days after surgery,restored
same,body weight,[5]; delayed chronic treatment (FIG. 18A),did not alter
same,blood glucose levels,[5]; delayed chronic treatment (FIG. 18B),did not alter
same,serum cholesterol,[5]; delayed chronic treatment (FIG. 19A),significantly decreased
same,serum LDL,[5]; delayed chronic treatment (FIG. 19B),significantly decreased
same,epithelial cell proliferation,[6],but not non-ischemic tissues
same,digit loss,[7],no digit loss
same,necrosis,[7],minimal necrosis
same,arteriogenesis,[8],significantly increased
same,levels of NO,"C2C12 myoblasts; 0.01 uM sodium nitrite, only in hypoxic conditions (FIG. 24B)",significantly increased
same,NO levels,C2C12 myoblasts; 100 uM sodium nitrite (FIG. 24A),did not alter
same,myogenin mRNA,"C2C12 myoblast cells; decreasing levels of sodium nitrite, inversely correlated with nitrite concentration",dose-dependent increase
same,levels of myogenin mRNA,C2C12 myoblast cells; lowest dose 0.01 uM sodium nitrite,highest
